ChEMBL document CHEMBL5131567, “3,5,7-Substituted Pyrazolo[4,3-d]Pyrimidine Inhibitors of Cyclin-Dependent Kinases and Cyclin K Degraders” (J Med Chem, 2022)
Active and inactive are the calls of the source. No cut-off for these calls is given here.

How the values were obtained:
[1] = Antiproliferative activity against human UPF1H cells assessed as cell growth inhibition measured after 72 hrs by resazurin dye based microplate reader analysis; type: functional
[2] = Antiproliferative activity against human MINO cells assessed as cell growth inhibition measured after 72 hrs by resazurin dye based microplate reader analysis; type: functional
[3] = biological target: Cyclin-dependent kinase 2/cyclin E1 (Homo sapiens, UniProt P24941); experiment: Inhibition of His-tagged CDK2/cyclin E1 (unknown origin) expressed in Sf9 cells using histone H1 as substrate in presence of ATP and [gamma33-P]ATP by radioisotope filter binding assay; type: cell-based
U2932 = experiment: Antiproliferative activity against human U2932 cells assessed as cell growth inhibition measured after 72 hrs by resazurin dye based microplate reader analysis; type: functional
MINO = experiment: Downregulation of cyclin K levels in human MINO cells up to 5 uM incubated for 2 hrs by immunoblotting analysis; type: functional, cell-based
SUD4 = experiment: Antiproliferative activity against human SU-DHL-4 cells assessed as cell growth inhibition measured after 72 hrs by resazurin dye based microplate reader analysis; type: functional
[4] = Inhibition of GST-tagged human CDK5/p25 expressed in Sf9 cells using histone H1 as substrate in presence of ATP and [gamma33-P] ATP by radioisotope filter binding assay
OCI-LY19 = experiment: Antiproliferative activity against human OCILY19 cells assessed as cell growth inhibition measured after 72 hrs by resazurin dye based microplate reader analysis; type: functional
[5] = biological target: Cyclin-dependent kinase 13/Cyclin-K (Homo sapiens, UniProt Q14004); experiment: Inhibition of GST-tagged human CDK13/Cyclin K expressed in Sf9 cells using RBER-IRStide peptide as substrate in presence of ATP and [gamma33-P] ATP by radioisotope filter binding assay
NU-DUL-1 = experiment: Antiproliferative activity against human NU-DUL-1 cells assessed as cell growth inhibition measured after 72 hrs by resazurin dye based microplate reader analysis; type: functional
[6] = Antiproliferative activity against human Ri-1 cells assessed as cell growth inhibition measured after 72 hrs by resazurin dye based microplate reader analysis; type: functional
DB = experiment: Antiproliferative activity against human DB cells assessed as cell growth inhibition measured after 72 hrs by resazurin dye based microplate reader analysis; type: functional
[7] = Antiproliferative activity against human OCI-Ly2 cells assessed as cell growth inhibition measured after 72 hrs by resazurin dye based microplate reader analysis; type: functional
CDK12/Cyclin K = CDK12/Cyclin K (Homo sapiens, UniProt Q9NYV4); experiment: Inhibition of GST-tagged human CDK12/Cyclin K expressed in Sf9 cells using RBER-IRStide peptide as substrate in presence of ATP and [gamma33-P] ATP by radioisotope filter binding assay
CDK9/cyclin T1 = CDK9/cyclin T1 (Homo sapiens, UniProt P50750); experiment: Inhibition of GST-tagged human CDK9/Cyclin T1 expressed in Sf9 cells using (YSPTSPS)2KK peptide as substrate in presence of ATP and [gamma33-P] ATP by radioisotope filter binding assay; type: cell-based
[8] = biological target: Cyclin-dependent kinase 2/G1/S-specific cyclin-D1 (Homo sapiens, UniProt P24385+P24941); type: cell-based, Sf9
[9] = biological target: Dual specificity tyrosine-phosphorylation-regulated kinase 1A (Homo sapiens) (UniProt Q13627); experiment: Inhibition of human DYRK1A (1 to 502 residues) expressed in Escherichia coli expression system at 1 uM using KKISGRLSPIMTEQ peptide as substrate incubated for 30 mins in presence of [gamma33P]ATP by scintillation based radioactive filter binding assay relative to control
[10] = biological target: Serine/threonine-protein kinase PAK 4 (Homo sapiens) (UniProt O96013); experiment: Inhibition of human PAK4 (2 to 591 residues) expressed in Escherichia coli expression system at 1 uM using RRRLSFAEPG peptide as substrate incubated for 30 mins in presence of [gamma33P]ATP by scintillation based radioactive filter binding assay relative to control
[11] = biological target: Glycogen synthase kinase-3 beta (Homo sapiens) (UniProt P49841); experiment: Inhibition of human GSK3beta (2 to 420 residues) expressed in Sf21 cells at 1 uM using YRRAAVPPSPSLSRHSSPHQS(PO4)EDEEE peptide as substrate incubated for 30 mins in presence of [gamma33P]ATP by scintillation based radioactive filter binding assay relative to control

Chain of CDK12/Cyclin K (O75909 whole entry): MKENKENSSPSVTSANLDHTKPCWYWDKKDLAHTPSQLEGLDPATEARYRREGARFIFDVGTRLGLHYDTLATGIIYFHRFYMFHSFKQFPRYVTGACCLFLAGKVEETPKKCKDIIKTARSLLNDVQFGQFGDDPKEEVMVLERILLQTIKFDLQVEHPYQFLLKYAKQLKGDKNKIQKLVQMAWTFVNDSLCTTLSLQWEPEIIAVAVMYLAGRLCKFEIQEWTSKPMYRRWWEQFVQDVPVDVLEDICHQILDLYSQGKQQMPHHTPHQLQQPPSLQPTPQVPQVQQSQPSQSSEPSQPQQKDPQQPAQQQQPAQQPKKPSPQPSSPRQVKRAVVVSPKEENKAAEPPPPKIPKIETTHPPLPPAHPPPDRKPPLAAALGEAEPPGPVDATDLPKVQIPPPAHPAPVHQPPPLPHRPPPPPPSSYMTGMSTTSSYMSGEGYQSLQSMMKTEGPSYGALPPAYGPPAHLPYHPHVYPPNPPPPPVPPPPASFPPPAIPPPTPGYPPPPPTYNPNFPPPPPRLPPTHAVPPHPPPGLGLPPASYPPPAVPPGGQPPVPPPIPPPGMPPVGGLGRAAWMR
Chain of CDK12/Cyclin K (Q9NYV4 whole entry): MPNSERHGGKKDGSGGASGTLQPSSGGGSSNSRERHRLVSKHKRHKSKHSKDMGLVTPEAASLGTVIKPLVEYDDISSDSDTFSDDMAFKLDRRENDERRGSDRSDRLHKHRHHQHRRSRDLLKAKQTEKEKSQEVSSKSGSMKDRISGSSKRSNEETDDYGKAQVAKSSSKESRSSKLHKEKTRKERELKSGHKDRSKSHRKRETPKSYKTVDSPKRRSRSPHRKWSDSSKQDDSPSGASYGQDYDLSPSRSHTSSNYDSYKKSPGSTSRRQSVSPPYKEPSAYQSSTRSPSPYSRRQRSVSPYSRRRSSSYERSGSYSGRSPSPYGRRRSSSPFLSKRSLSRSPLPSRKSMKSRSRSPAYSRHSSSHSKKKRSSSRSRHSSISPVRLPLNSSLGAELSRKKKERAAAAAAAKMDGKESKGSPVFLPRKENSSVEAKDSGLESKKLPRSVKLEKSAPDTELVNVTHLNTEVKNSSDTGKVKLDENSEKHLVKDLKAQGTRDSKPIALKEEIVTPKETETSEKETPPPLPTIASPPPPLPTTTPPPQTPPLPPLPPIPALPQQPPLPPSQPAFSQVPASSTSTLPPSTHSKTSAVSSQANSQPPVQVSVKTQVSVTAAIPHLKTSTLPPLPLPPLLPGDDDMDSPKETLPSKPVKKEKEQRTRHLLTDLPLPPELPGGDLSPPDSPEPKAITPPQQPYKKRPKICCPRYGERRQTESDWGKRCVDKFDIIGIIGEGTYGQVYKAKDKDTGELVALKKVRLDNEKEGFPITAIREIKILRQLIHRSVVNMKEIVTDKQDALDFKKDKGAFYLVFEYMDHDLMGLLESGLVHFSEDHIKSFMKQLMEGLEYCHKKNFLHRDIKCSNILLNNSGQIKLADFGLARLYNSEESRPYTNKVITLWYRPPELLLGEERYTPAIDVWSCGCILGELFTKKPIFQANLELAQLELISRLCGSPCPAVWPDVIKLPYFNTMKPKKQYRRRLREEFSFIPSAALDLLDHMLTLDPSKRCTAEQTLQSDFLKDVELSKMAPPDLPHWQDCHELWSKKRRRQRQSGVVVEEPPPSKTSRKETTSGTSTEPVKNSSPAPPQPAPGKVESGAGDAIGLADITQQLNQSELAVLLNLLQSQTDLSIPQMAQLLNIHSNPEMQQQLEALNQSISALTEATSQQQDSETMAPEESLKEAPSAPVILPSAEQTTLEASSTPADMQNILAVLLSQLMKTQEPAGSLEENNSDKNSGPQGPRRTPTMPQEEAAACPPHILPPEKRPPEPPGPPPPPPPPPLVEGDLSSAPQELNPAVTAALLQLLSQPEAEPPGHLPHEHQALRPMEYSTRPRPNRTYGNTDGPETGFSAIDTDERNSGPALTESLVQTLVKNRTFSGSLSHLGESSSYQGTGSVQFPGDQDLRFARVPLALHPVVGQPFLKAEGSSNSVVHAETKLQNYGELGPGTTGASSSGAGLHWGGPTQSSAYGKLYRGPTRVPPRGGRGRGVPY
Chain of CDK9/cyclin T1 (O60563 whole entry): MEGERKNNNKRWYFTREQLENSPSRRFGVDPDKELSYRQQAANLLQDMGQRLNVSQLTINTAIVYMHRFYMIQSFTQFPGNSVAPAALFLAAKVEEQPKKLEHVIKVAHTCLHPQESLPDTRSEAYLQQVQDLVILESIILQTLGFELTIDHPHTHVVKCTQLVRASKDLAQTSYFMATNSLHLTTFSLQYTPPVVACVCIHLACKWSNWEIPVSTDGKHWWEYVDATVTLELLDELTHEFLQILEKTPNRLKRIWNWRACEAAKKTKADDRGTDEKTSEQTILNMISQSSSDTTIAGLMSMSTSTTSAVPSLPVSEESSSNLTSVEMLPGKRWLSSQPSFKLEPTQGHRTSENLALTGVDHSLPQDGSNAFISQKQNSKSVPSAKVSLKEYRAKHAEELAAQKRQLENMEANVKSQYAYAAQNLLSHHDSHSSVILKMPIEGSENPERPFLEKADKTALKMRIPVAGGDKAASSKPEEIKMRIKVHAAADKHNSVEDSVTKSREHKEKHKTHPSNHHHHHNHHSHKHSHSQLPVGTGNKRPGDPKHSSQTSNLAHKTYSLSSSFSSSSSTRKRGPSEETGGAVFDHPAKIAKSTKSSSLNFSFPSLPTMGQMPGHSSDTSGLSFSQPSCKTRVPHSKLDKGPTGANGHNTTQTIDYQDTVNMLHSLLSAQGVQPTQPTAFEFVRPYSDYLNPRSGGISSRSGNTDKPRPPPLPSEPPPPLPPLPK
Chain of CDK9/cyclin T1 (P50750 whole entry): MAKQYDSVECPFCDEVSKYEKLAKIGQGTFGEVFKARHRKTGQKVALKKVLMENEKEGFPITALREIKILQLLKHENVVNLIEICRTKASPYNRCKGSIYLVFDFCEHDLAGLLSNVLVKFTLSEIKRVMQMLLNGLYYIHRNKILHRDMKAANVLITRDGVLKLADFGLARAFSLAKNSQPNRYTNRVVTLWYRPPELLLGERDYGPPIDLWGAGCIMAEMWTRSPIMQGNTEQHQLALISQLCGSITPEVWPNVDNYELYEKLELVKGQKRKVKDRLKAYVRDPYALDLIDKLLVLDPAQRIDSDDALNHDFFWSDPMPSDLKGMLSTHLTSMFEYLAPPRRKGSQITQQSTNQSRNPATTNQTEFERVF
Chain of Cyclin-dependent kinase 13/Cyclin-K (Q14004 whole entry): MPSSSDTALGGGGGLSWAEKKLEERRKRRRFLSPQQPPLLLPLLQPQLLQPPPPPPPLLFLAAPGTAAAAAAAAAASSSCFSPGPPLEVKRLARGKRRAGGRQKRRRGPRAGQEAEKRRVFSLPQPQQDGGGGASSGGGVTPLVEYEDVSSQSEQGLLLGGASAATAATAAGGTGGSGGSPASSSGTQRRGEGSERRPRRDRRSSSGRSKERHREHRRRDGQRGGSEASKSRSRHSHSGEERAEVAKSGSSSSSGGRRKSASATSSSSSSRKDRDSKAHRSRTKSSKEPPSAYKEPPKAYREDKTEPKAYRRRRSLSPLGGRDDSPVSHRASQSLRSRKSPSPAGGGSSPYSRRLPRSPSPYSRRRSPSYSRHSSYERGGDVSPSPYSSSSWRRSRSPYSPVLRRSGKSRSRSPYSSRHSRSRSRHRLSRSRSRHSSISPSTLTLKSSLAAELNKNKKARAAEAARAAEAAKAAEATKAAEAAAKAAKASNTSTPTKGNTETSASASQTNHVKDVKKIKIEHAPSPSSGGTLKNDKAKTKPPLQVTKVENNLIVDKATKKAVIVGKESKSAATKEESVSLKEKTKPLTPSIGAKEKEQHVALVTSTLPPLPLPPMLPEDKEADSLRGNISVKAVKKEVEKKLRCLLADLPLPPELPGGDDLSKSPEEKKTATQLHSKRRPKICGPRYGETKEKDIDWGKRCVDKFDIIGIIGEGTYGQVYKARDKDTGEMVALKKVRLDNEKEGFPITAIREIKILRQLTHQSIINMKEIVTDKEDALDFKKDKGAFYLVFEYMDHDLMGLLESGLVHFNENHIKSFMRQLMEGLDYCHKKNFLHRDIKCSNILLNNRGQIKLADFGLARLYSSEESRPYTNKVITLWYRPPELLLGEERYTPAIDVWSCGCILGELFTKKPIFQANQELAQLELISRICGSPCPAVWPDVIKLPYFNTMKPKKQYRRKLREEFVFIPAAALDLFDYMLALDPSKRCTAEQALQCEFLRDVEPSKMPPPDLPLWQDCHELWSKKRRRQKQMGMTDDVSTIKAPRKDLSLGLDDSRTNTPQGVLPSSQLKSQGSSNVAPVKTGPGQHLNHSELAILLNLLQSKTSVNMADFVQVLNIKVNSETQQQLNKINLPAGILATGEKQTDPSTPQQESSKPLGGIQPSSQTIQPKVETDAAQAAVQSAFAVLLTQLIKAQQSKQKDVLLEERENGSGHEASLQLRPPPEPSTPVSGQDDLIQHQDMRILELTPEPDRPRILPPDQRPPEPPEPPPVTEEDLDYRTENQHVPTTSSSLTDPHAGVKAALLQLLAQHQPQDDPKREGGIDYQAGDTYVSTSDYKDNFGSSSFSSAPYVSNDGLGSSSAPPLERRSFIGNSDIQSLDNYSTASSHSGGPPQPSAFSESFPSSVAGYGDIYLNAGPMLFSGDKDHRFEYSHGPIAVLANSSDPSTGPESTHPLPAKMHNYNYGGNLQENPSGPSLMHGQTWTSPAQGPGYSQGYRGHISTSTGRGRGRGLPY
Chain of Cyclin-dependent kinase 13/Cyclin-K (O75909 whole entry, further chain): as the sequence (O75909 whole entry) above

Row | IC50 [3] [µM] | Compound | GI50 [1] [µM] | GI50 [2] [µM] | other results
1 | 0.075 | CC(C)c1[nH]nc2c(NCc3ccc(-n4cccn4)cc3)nc(SCCCN(C)C)nc12 | 0.039 | 0.017 | –
2 | 0.256 | CC(C)c1[nH]nc2c(NCc3ccc(-n4cccn4)cc3)nc(S)nc12 | ≥ 10 | 5.9 | –
3 | 0.002 | CC(C)c1[nH]nc2c(NCc3ccc(-n4cccn4)cc3)nc(SCCN)nc12 | 0.004 | 0.001 | –
4 | 0.005 | CC(C)c1[nH]nc2c(NCc3ccc(-n4cccn4)cc3)nc(SCC(O)CO)nc12 (stereo not given) | 0.026 | 0.009 | –
5 | 0.019 | CC(C)c1[nH]nc2c(NCc3ccc(-n4cccn4)cc3)nc(SCC(N)CN)nc12 (stereo not given) | 0.58 | 0.41 | –
6 | 0.024 | CSc1nc(NCc2ccc(-n3cccn3)cc2)c2n[nH]c(C(C)C)c2n1 | 0.81 | 0.31 | –
7 | 0.006 | CC(C)c1[nH]nc2c(NCc3ccc(-n4cccn4)cc3)nc(SCC(O)CN)nc12 (stereo not given) | 0.095 | 0.043 | –
8 | 0.025 | CCC(O)CSc1nc(NCc2ccc(-n3cccn3)cc2)c2n[nH]c(C(C)C)c2n1 (stereo not given) | 0.591 | 0.022 | –
9 | 0.037 | CC(O)CNc1nc(NCc2ccc(-n3cccn3)cc2)c2n[nH]c(C(C)C)c2n1 (stereo not given) | 0.042 | 0.016 | –
10 | 0.005 | CC(C)c1[nH]nc2c(NCc3ccc(-n4cccn4)cc3)nc(SCCO)nc12 | 0.02 | 0.006 | –

Further lines, the compound ahead of its results:

Row | Compound | IC50 [3] [µM] | GI50 [1] [µM] | GI50 [2] [µM] | other results
11 | CC[C@H](CO)Nc1nc(NCc2ccccc2)c2ncn(C(C)C)c2n1 [SELICICLIB] | – | 3.07 | 1.49 | –
12 | CCc1cnn2c(NCc3ccc[n+]([O-])c3)cc(N3CCCC[C@H]3CCO)nc12 [DINACICLIB] | – | 0.022 | 0.021 | GI50 (U2932): 0.011 µM; Activity (MINO): Active; GI50 (SUD4): 0.009 µM; IC50 [4]: 0.013 µM; GI50 (OCI-LY19): 0.02 µM; IC50 [5]: 0.021 µM; GI50 (NU-DUL-1): 0.01 µM; GI50 [6]: 0.015 µM; GI50 (DB): 0.014 µM; GI50 [7]: 0.01 µM
13 | CC(C)c1[nH]nc2c(NCc3ccc(-n4cccn4)cc3)nc(S(C)(=O)=O)nc12 | 0.053 | 0.25 | 0.03 | –
14 | CC(C)c1[nH]nc2c(NCc3ccc(-n4cccn4)cc3)nc(SCC(C)(C)N)nc12 | – | 0.014 | 0.009 | –
15 | CC(C)c1n[nH]c2c(NCc3ccc(-c4cnccn4)cc3)nc(S)nc12 | 0.978 | ≥ 10 | 8.9 | –
16 | CC(C)c1[nH]nc2c(NCc3ccc(-n4cccn4)cc3)nc(SCCN(C)C)nc12 | – | 0.084 | 0.018 | –
17 | CC(C)c1n[nH]c2c(NCc3ccc(-n4ccnc4)cc3)nc(SCCO)nc12 | 0.012 | 6.47 | 1.48 | –
18 | CC(C)c1n[nH]c2c(NCc3ccc(-c4cnccn4)cc3)nc(SCCO)nc12 | – | 0.056 | 0.016 | –
19 | CN(C)C/C=C/C(=O)Nc1ccc(C(=O)N2CCC[C@@H](Nc3ncc(Cl)c(-c4c[nH]c5ccccc45)n3)C2)cc1 | – | – | – | Activity (MINO): Active
20 | OCCSc1nc(NCc2ccc(-c3ccccn3)cc2)c2[nH]nc(C3CCC3)c2n1 | 0.009 | 0.152 | 0.058 | –
21 | CC(C)c1[nH]nc2c(NCc3ccc(-n4cccn4)cc3)nc(SCC(C)(C)O)nc12 | – | 0.087 | 0.034 | –
22 | CC(C)c1n[nH]c2c(NCc3ccc(-c4cnccn4)cc3)nc(SCCN)nc12 | – | 0.069 | 0.022 | IC50 (CDK12/Cyclin K): 0.05 µM; GI50 (U2932): 0.093 µM; GI50 (SUD4): 0.062 µM; IC50 [4]: 0.157 µM; GI50 (OCI-LY19): 0.445 µM; IC50 [5]: 0.022 µM; GI50 (NU-DUL-1): 0.054 µM; IC50 (CDK9/cyclin T1): 0.023 µM; GI50 [6]: 0.054 µM; GI50 (DB): 0.075 µM; IC50 [8]: > 1 µM; GI50 [7]: 0.033 µM
23 | CC(C)c1n[nH]c2c(NCc3ccc(-c4c[nH]cn4)cc3)nc(S)nc12 | 0.464 | ≥ 10 | ≥ 10 | –
24 | CC(C)c1n[nH]c2c(NCc3ccc(-n4ccnc4)cc3)nc(S)nc12 | 2.3 | ≥ 10 | ≥ 10 | –
25 | CC(C)c1n[nH]c2c(NCc3ccc(-c4c[nH]cn4)cc3)nc(SCCO)nc12 | – | 1.43 | 0.49 | –
26 | CC(O)CSc1nc(NCc2ccc(-n3cccn3)cc2)c2n[nH]c(C(C)C)c2n1 (stereo not given) | 0.006 | 0.061 | 0.018 | inhibition [9]: > 50%; IC50 (CDK12/Cyclin K): 0.156 µM; GI50 (U2932): 0.059 µM; GI50 (SUD4): 0.105 µM; IC50 [4]: 0.179 µM; GI50 (OCI-LY19): 0.101 µM; inhibition [10]: > 50%; IC50 [5]: 0.122 µM; GI50 (NU-DUL-1): 0.062 µM; IC50 (CDK9/cyclin T1): 0.062 µM; GI50 [6]: 0.061 µM; GI50 (DB): 0.078 µM; IC50 [8]: > 1 µM; inhibition [11]: > 50%; GI50 [7]: 0.055 µM
27 | NCCSc1nc(NCc2ccc(-c3ccccn3)cc2)c2[nH]nc(C3CCCC3)c2n1 | 0.012 | 0.111 | 0.031 | IC50 (CDK12/Cyclin K): 0.304 µM; GI50 (U2932): 0.265 µM; GI50 (SUD4): 0.18 µM; IC50 [4]: 0.127 µM; GI50 (OCI-LY19): 0.915 µM; IC50 [5]: 0.334 µM; GI50 (NU-DUL-1): 0.2 µM; IC50 (CDK9/cyclin T1): 0.038 µM; GI50 [6]: 0.33 µM; GI50 (DB): 0.107 µM; IC50 [8]: > 1 µM; GI50 [7]: 0.047 µM
28 | NCCSc1nc(NCc2ccc(-c3ccccn3)cc2)c2[nH]nc(C3CCC3)c2n1 | 0.005 | 0.019 | 0.011 | IC50 (CDK12/Cyclin K): 0.029 µM; GI50 (U2932): 0.044 µM; GI50 (SUD4): 0.03 µM; IC50 [4]: 0.024 µM; GI50 (OCI-LY19): 0.35 µM; IC50 [5]: 0.012 µM; GI50 (NU-DUL-1): 0.017 µM; IC50 (CDK9/cyclin T1): 0.012 µM; GI50 [6]: 0.023 µM; GI50 (DB): 0.022 µM; IC50 [8]: 0.94 µM; GI50 [7]: 0.04 µM
29 | CC(C)c1n[nH]c2c(NCc3ccc(-n4ccnc4)cc3)nc(SCCN)nc12 | 0.004 | 1.77 | 0.927 | IC50 (CDK12/Cyclin K): 0.073 µM; GI50 (U2932): 0.689 µM; GI50 (SUD4): 0.435 µM; IC50 [4]: 0.054 µM; GI50 (OCI-LY19): 3.56 µM; IC50 [5]: 0.067 µM; GI50 (NU-DUL-1): 0.384 µM; IC50 (CDK9/cyclin T1): 0.011 µM; GI50 [6]: 0.435 µM; GI50 (DB): 0.599 µM; IC50 [8]: > 1 µM; GI50 [7]: 0.17 µM
